Patent US20040209799A1, “JAK/STAT pathway inhibitors and the uses thereof” (priority 2000, published 2004)

Legend:
JAK3 = molecular target: T1, JAK3 (Homo sapiens, UniProt P52333); assay: tyrosine kinase ELISA, DBH inhibition of JAK3 (Example 6); format: biochemical; settings: GAS 1 biotinylated peptide substrate, 0-1250 μM ATP, 30 min at 37° C., read-out: inhibition constant (Ki)
T1 sequence (P52333 1-1124): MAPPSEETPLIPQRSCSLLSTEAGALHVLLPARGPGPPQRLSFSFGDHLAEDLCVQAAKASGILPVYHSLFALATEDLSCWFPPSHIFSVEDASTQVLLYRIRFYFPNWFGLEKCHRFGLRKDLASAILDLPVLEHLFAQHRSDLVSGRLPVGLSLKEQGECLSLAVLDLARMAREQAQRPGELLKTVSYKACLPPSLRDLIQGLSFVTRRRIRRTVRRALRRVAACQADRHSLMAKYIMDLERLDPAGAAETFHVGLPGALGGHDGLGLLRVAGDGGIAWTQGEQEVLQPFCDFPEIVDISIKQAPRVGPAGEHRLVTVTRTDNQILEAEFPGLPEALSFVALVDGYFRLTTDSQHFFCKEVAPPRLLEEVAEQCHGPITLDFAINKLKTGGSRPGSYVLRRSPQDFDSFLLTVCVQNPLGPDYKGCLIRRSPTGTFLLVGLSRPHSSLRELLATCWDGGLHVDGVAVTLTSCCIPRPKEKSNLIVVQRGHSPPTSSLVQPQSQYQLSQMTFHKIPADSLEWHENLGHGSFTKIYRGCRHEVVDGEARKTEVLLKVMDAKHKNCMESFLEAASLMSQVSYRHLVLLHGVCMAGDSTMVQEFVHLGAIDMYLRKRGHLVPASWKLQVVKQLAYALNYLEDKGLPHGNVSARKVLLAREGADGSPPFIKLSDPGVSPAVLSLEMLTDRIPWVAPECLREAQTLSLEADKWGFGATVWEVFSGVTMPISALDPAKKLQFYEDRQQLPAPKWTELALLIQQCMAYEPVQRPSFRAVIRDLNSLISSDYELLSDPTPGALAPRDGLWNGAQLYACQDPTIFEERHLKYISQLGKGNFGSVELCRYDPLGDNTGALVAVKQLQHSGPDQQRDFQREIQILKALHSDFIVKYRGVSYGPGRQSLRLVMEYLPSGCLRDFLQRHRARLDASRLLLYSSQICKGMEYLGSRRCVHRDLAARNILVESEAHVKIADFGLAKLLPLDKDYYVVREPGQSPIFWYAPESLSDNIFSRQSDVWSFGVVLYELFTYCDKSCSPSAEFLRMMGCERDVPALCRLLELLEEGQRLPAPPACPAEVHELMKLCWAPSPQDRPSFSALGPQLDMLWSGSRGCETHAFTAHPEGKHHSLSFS
Protocol: Nunc-Immunoplate Maxisorp flat-bottomed capture plates (Nalge Nunc International, Rochester, N.Y.) were coated with 80 μl/well anti-phosphotyrosine PY54 MAb antibody (Transduction Labs, Lexington, Ky.), diluted to 2 μg/ml in coating buffer (10 mM phosphate, pH 7.2+0.02% NaN3), and allowed to adsorb overnight at 4° C. The plates were washed (all washes are 4× with TBST: 25 mM Tris/HCl, pH 8.0, 150 mM NaCl+0.05% Tween-20), and 200 μl/well of blocking buffer (TBST+1% BSA) was added. The plates were sealed and incubated at 37° C. for 60 min or overnight at 4° C., and washed again.
Kinase reactions were run in 50 μl volumes with biotinylated peptide substrate in a round-bottom plate (Corning, Corning, N.Y.). Kinase reactions mixtures contained; 20 μl 50 μM GAS 1 biotinylated peptide (LCBiotin-EGPWLEEEEEAYGWMDF-amide), 0-1250 μM ATP in kinase buffer, 10 μl 50 mM MgCl2 in 2× kinase buffer (50 mM imidazole/HCl, 2 mM EDTA, 0.2 mM EDTA, 0.030% Brij-35, pH 6.8), 10 μl 0-50 μM DBH in water containing 0.2% Pluronic-104 and 3% dimethyl sulfoxide (DMSO), and 10 μl JAK3 enzyme diluted in kinase buffer. A phosphopeptide standard curve (0-10 nM) using kinase buffer as the diluent was also tested.
Kinase reactions were run for 30 min at 37° C., then stopped by adding 15 μl/well of 0.125 M EDTA, pH 6.8. […] Samples were read at A450-A620.

[1] = tested on: interleukin-6 (IL-6) mRNA; assay: northern blot, IL-1β-induced mRNA in human articular chondrocytes: IL-6; format: cell-based; settings: 5 μM, 2 ng/ml rhIL-1β, 24 hours, free base or trifluoroacetic acid salt form
Protocol: Frozen human articular chondrocyte cell strain HC30-0198 (described in Example 1) was thawed, and cultured in monolayer in T150 tissue culture flasks (Corning Costar, Cambridge, Mass.) as described above to 1-5 days post-confluence. Test cultures were rinsed in PBS, and preincubated for 2 hours with 10 ml of serum-free DMEM containing 5 μM DBH (synthetic), in its free base or trifluoroacetic acid salt form. An additional 10 ml of serum-free DMEM containing 5 μM DBH, 4 ng/ml recombinant human interleukin-1β (rhIL-1β; final concentration of 2 ng/ml) (R&D Systems, Minneapolis, Minn.), and 2% antibiotic solution (final concentration of 1%), were then added for 24 hours.
Two control cultures were run in parallel: one without DBH (rhIL-1β alone), and another without DBH or rhIL-1β.
Total RNA was fixed to the membrane using a Stratalinker® 1800 UV Crosslinker (Stratagene, La Jolla, Calif.). […]
The blot was successively washed two times in 2×SSC/0.05% SDS (15 min/wash at room temperature), and two times in 0.1×SSC/0.1% SDS (30 minutes/wash at 65° C.). The blot was allowed to air dry, and the radioactive signal was visualized and quantified using a Fujifilm, BAS-1500 phosphorimager (Fuji, Stamford, Conn.). […]

- Ki (JAK3): 286 ± 16 nM
Structure (SMILES): NC1=NC(=O)C(=C2CCNC(=O)c3[nH]ccc32)N1 [DBH, 4-(2-amino-4-oxo-2-imidazolin-5-ylidene)-4,5,6,7-tetrahydropyrrolo(2,3-c) azepine-8-one]
- inhibition of IL-1β-induced upregulation of interleukin-6 (IL-6) mRNA [1]: inhibit to various degrees
